This assay deals with T1, cytochrome P450 2D6 (Homo sapiens, UniProt P10635).
T1 construct: were incubated with human liver microsomes (0.25 mg/mL protein and 0.075 μM P450); from tissue; host or cells: human liver microsomes
Briefly: inhibition of cytochrome P450 2D6 in human liver microsomes (dextromethorphan to dextrorphan). In kind it is biochemical. The conditions noted are these: human liver microsomes 0.25 mg/mL protein, 8 μM dextromethorphan, 1 mM NADPH, 37° C., 20 min; average IC50 with number of tests in parentheses. The method, then:
Following the 20 min incubation, the reaction was quenched by addition of 200 μL acetonitrile containing 0.1 μM buspirone as an internal standard. The samples were then vortex mixed and centrifuged to pellet the protein. The supernantant was transferred, dried under nitrogen flow and reconstituted in mobile phase. A 10 uL aliquot was injected onto a gradient reversed phase HPLC system with a Phenomenex Luna C18 (50×4.6 mm) column. Dextrorphan, formed by the metabolism of dextromethorphan by CYP 2D6, was monitored using tandem MS/MS in the APCl mode with the MRM transition of m/z 258.3>156.6. Remaining-CYP2D6 activity (%) was determined for the samples relative to a vehicle control. The data were analyzed by non-linear regression according to % R=% Rmax[formula](1−(C/(C+IC50))) using WinNonLin (version 4.0.1), where % R is the % remaining CYP 2D6 activity relative to the vehicle control, C is the concentration of the compound of interest, and IC50 is the inhibitory concentration of the compound of interest giving 50% inhibition of maximal % remaining activity. The data are reported as IC50s (μM). If more than one assay was performed for a particular compound, the average IC50 is reported with the number of tests in parentheses.
In general terms: Liver microsomes are vesicles of endoplasmic reticulum, rich in cytochrome P450 enzymes.

Molecules are shown by their SMILES.

The term IC50 denotes the point on the concentration scale where inhibition reaches its midpoint.

T1 sequence (P10635 whole entry): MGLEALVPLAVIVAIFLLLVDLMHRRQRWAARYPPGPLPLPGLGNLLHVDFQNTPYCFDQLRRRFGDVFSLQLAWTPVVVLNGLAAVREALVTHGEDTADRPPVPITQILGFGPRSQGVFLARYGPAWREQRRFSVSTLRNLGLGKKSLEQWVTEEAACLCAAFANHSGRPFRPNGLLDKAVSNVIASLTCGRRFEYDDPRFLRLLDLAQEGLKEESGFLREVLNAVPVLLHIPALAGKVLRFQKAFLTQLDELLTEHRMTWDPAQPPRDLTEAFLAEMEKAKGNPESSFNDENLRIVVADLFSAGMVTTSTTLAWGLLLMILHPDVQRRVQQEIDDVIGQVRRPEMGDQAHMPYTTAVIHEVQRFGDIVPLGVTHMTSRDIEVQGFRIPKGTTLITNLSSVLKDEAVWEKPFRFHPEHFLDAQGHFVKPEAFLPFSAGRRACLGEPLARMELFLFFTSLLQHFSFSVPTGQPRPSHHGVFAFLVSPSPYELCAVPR

Consider `N#CC1(c2ccc(CCC3(C4CCCC4)CC(O)=C(Cc4nc5ncccn5n4)C(=O)O3)cc2F)CC1` (racemic) [Compound 25, 1-(4-{2-[2-cyclopentyl-4-hydroxy-6-oxo-5-([1,2,4]triazolo[1,5-a]pyrimidin-2-ylmethyl)-3,6-dihydro-2H-pyran-2-yl]ethyl}-2-fluorophenyl)cyclopropanecarbonitrile], for which the IC50 worked out at 1100 nM.

With `CCc1cc(CCC2(C3CCCC3)CC(O)=C(Cc3nc4nc(C)cc(C)n4n3)C(=O)O2)cc(Cl)c1O` (stereo not drawn) [Compound 6, 6-[2-(3-chloro-5-ethyl-4-hydroxyphenyl)ethyl]-6-cyclopentyl-3-[(5,7-dimethyl[1,2,4]triazolo[1,5-a]pyrimidin-2-yl)methyl]-4-hydroxy-5,6-dihydro-2H-pyran-2-one], the half-inhibitory concentration (IC50) came out at 190 nM.

In the case of `Cc1cc(C)n2nc(CC3=C(O)CC(COc4ccc(C(C)(C)C#N)c(F)c4)(C4CCCC4)OC3=O)nc2n1` (stereo not drawn) [Compound 16, 2-[4-({2-cyclopentyl-5-[(5,7-dimethyl[1,2,4]triazolo[1,5-a]pyrimidin-2-yl)methyl]-4-hydroxy-6-oxo-3,6-dihydro-2H-pyran-2-yl}methoxy)-2-fluorophenyl]-2-methylpropanenitrile], the IC50 was 200 nM.

For the molecule `CC(C)(C#N)c1c(F)cc(CCC2(C3CCCC3)CC(O)=C(Cc3nc4ncccn4n3)C(=O)O2)cc1F` (stereo not drawn) [Compound 20, 2-(4-{2-[2-cyclopentyl-4-hydroxy-6-oxo-5-([1,2,4]triazolo[1,5-a]pyrimidin-2-ylmethyl)-3,6-dihydro-2H-pyran-2-yl]ethyl}-2,6-difluorophenyl)-2-methylpropanenitrile], the IC50 is less than 74 nM.

Turning to `Cc1cnc2nc(CC3=C(O)CC(CCc4ccc(C5(C#N)CC5)c(F)c4)(C4CCCC4)OC3=O)nn2c1` (single isomer, unassigned) [Compound 23, 1-[4-(2-{2-cyclopentyl-4-hydroxy-5-[(6-methyl[1,2,4]triazolo[1,5-a]pyrimidin-2-yl)methyl]-6-oxo-3,6-dihydro-2H-pyran-2-yl}ethyl)-2-fluorophenyl]cyclopropanecarbonitrile], the IC50 came to 280 nM.

Consider `Cc1cnc2nc(CC3=C(O)CC(CCc4cc(F)c(C(C)(C)C#N)c(F)c4)(C4CCCC4)OC3=O)nn2c1` (single isomer, unassigned) [Compound 31, 2-[4-(2-{2-cyclopentyl-4-hydroxy-5-[(6-methyl[1,2,4]triazolo[1,5-a]pyrimidin-2-yl)methyl]-6-oxo-3,6-dihydro-2H-pyran-2-yl}ethyl)-2,6-difluorophenyl]-2-methylpropanenitrile], for which the IC50 was no more than 74 nM.

Turning to `COc1cc(C(C)(C)C#N)c(F)cc1CCC1(C2CCCC2)CC(O)=C(Cc2nc3ncc(C)cn3n2)C(=O)O1` (stereo not drawn) [Compound 33, 2-[4-(2-{2-cyclopentyl-4-hydroxy-5-[(6-methyl[1,2,4]triazolo[1,5-a]pyrimidin-2-yl)methyl]-6-oxo-3,6-dihydro-2H-pyran-2-yl}ethyl)-2-fluoro-5-methoxyphenyl]-2-methylpropanenitrile], the IC50 is less than 74 nM.

On to `N#CC1(c2ccc(CCC3(C4CCCC4)CC(O)=C(Cc4nc5ncccn5n4)C(=O)O3)cc2F)CC1` (racemic) [Compound 26, 1-(4-{2-[2-cyclopentyl-4-hydroxy-6-oxo-5-([1,2,4]triazolo[1,5-a]pyrimidin-2-ylmethyl)-3,6-dihydro-2H-pyran-2-yl]ethyl}-2-fluorophenyl)cyclopropanecarbonitrile], for which the IC50 is 410 nM.

Consider `N#CC1(c2ccc(CCC3(C4CCCC4)CC(O)=C(Cc4nc5ncc(Cl)cn5n4)C(=O)O3)cc2F)CC1` (stereo not drawn) [Compound 14, 1-[4-(2-{5-[(6-chloro[1,2,4]triazolo[1,5-a]pyrimidin-2-yl)methyl]-2-cyclopentyl-4-hydroxy-6-oxo-3,6-dihydro-2H-pyran-2-yl}ethyl)-2-fluorophenyl]cyclopropanecarbonitrile], for which the 50% inhibitory concentration (IC50) came to 270 nM.

For `Cc1cc(C)n2nc(CC3=C(O)CC(CCc4ccc(C5(C#N)CC5)c(F)c4)(C4CCCC4)OC3=O)nc2n1` (racemic) [Compound 27, 1-[4-(2-{2-cyclopentyl-5-[(5,7-dimethyl[1,2,4]triazolo[1,5-a]pyrimidin-2-yl)methyl]-4-hydroxy-6-oxo-3,6-dihydro-2H-pyran-2-yl}ethyl)-2-fluorophenyl]cyclopropanecarbonitrile], the IC50 amounted to 300 nM.

Consider `Cc1cnc2nc(CC3=C(O)CC(CCc4ccc(C5(C#N)CC5)c(F)c4)(C4CCCC4)OC3=O)nn2c1` (single isomer, unassigned) [Compound 24, 1-[4-(2-{2-cyclopentyl-4-hydroxy-5-[(6-methyl[1,2,4]triazolo[1,5-a]pyrimidin-2-yl)methyl]-6-oxo-3,6-dihydro-2H-pyran-2-yl}ethyl)-2-fluorophenyl]cyclopropanecarbonitrile], for which the IC50 turned out to be 1200 nM.

Turning to `Cc1cc(C)n2nc(CC3=C(O)CC(CCc4cc(F)c(C(C)(C)C#N)c(F)c4)(C4CCCC4)OC3=O)nc2n1` (stereo not drawn) [Compound 7, 2-[4-(2-{2-cyclopentyl-5-[(5,7-dimethyl[1,2,4]triazolo[1,5-a]pyrimidin-2-yl)methyl]-4-hydroxy-6-oxo-3,6-dihydro-2H-pyran-2-yl}ethyl)-2,6-difluorophenyl]-2-methylpropanenitrile], the IC50 is less than 74 nM.
